Data on nine molecules can be found in publication PMC8479016, “High-throughput screening and evaluation of repurposed drugs targeting the SARS-CoV-2 main protease” (Signal Transduction and Targeted Therapy, 2021).

The structures appear in SMILES notation. Several values for one entry are separate records, joined by “and”; a condition that tells them apart may be missing. Equal entries are not always repeated. Entries after “also recorded” stand apart in the source; their conditions may differ. Where two headings read alike, the source gives them in different places.

Assay [1] deals with T1, SARS-CoV-2 M^pro (Severe acute respiratory syndrome coronavirus 2, UniProt P0DTD1). The assay is described as follows: biochemical. The class given is binding.
For assay [2], the target named is T1, SARS-CoV-2 M^pro. In words: biochemical. Conditions: for inhibitory efficacy on the enzymatic activity of M^pro (inhibition rate): 20 μM drug, 1.5 µM M^pro, 10 μM substrate, 3~6 h. The assay is classed as biochemical.
Assay [3] deals with SARS-CoV-2. The assay is described as follows: Antiviral activity assay in infected Vero E6 cells, viral RNA copies by qRT-PCR. The assay is classed as cell-based. Conditions: Vero E6, MOI 0.01, 48 h after infection.
Assay [4] relates to SARS-CoV-2. Also noted: method as in earlier work. To be noted: cellular experiment; cited from earlier work.
The mark [5] stands for this setting: SPR, steady-state affinity model, 25℃, read-out: KD (equilibrium dissociation constant).

As to `Cc1onc(-c2ccccc2Cl)c1C(=O)N[C@@H]1C(=O)N2[C@@H]1SC(C)(C)[C@@H]2C(=O)O` [Cloxacillin], the dissociation constant (Kd) at SARS-CoV-2 M^pro [1] (setting [5]) was ≤ 55 µM and 54.6 µM. Moreover, at SARS-CoV-2 M^pro [2], the “inhibitory efficacy on the enzymatic activity of M^pro (inhibition rate)” value (from here on “inhibitory efficacy”) is listed as “moderate inhibition”.

In the case of `C[C@@H]1CCO[C@H]2Cn3cc(C(=O)NCc4ccc(F)cc4F)c(=O)c(O)c3C(=O)N12` [Dolutegravir], at SARS-CoV-2 M^pro [1] (setting [5]), the Kd was ≤ 55 µM and 18.1 µM. Moreover, the “inhibitory efficacy” value against SARS-CoV-2 M^pro [2] was “moderate inhibition”.

In the case of `CC(C)(O)CNc1nc(Nc2ccnc(C(F)(F)F)c2)nc(-c2cccc(C(F)(F)F)n2)n1` [Enasidenib], the equilibrium dissociation constant (Kd) at SARS-CoV-2 M^pro [1] (setting [5]) is ≤ 55 µM and 9.31 µM.

For `CN1CCN(c2ccc(C(=O)Nc3n[nH]c4ccc(Cc5cc(F)cc(F)c5)cc34)c(NC3CCOCC3)c2)CC1` [Entrectinib], on SARS-CoV-2 M^pro [1] (setting [5]), the Kd was ≤ 55 µM and 0.68 µM. Also, the 50% inhibitory concentration (IC50) on SARS-CoV-2 M^pro [2] (200 nM M^pro, 5-fold gradient 0.032-20 µM, 3 h, read-out: IC50) is 10.6 µM. Further, at SARS-CoV-2 M^pro [2], the “inhibitory efficacy” value is reported as “outstanding inhibitory efficacy”. The same molecule registered an EC50 in the assay on SARS-CoV-2 [3] (Severe acute respiratory syndrome coronavirus 2, Vero C1008) of 0.198 µM.

In turn, `CC(C)C[C@H](NC(=O)OCc1ccccc1)C(=O)N[C@@H](CC1CCNC1=O)C(O)S(=O)(=O)O` (stereo partly drawn) [GC376] showed a 50% effective concentration (EC50) with SARS-CoV-2 [3] of 0.074 µM.

For the molecule `CC(C)(C)NC(=O)[C@@H]1C[C@@H]2CCCC[C@@H]2CN1C[C@@H](O)[C@H](Cc1ccccc1)NC(=O)[C@H](CC(N)=O)NC(=O)c1ccc2ccccc2n1` [Saquinavir], the results for the Kd at SARS-CoV-2 M^pro [1] and on SARS-CoV-2 M^pro [1] (read-out: KD (equilibrium dissociation constant)) were 2.96 ± 2 µM and at most 55 µM, respectively.

Regarding `CC(C)CN(C[C@@H](O)[C@H](Cc1ccccc1)NC(=O)O[C@H]1CO[C@H]2OCC[C@H]21)S(=O)(=O)c1ccc(N)cc1` [darunavir], the “inhibitory efficacy” value on SARS-CoV-2 M^pro [2] is “either no or only weak inhibitory effects”.

On to `Cc1cccc(C)c1OCC(=O)N[C@@H](Cc1ccccc1)[C@@H](O)C[C@H](Cc1ccccc1)NC(=O)[C@H](C(C)C)N1CCCNC1=O` [lopinavir], for which the “inhibitory efficacy” value against SARS-CoV-2 M^pro [2] is “either no or only weak inhibitory effects”.

Consider `Cc1c(O)cccc1C(=O)N[C@@H](CSc1ccccc1)[C@H](O)CN1C[C@H]2CCCC[C@H]2C[C@H]1C(=O)NC(C)(C)C` [nelfinavir], for which binding at SARS-CoV-2 M^pro [1] was characterised by a dissociation constant (Kd) of 2.36 µM. Besides, at SARS-CoV-2 M^pro [2], the midpoint of inhibition, the IC50, lay at 41.5 µM and the “inhibitory efficacy” value is recorded as “either no or only weak inhibitory effects; also recorded: failed to block the enzymatic activity”. The EC50 with SARS-CoV-2 [4] was 1.13 µM.

In general, Kd refers to the constant that tells how readily two partners part at equilibrium. The IC50 is the midpoint of a concentration-inhibition curve. By EC50 is commonly meant the concentration that produces a half-maximal response.
